# Data published in patent US20230192703A1, “Polycyclic amide derivative as CDK9 inhibitor, preparation method therefor and use thereof” (Suzhou AlphaMa Biotechnology Co., Ltd., priority 2020, published 2023).
# Assays:
# [1] = molecular target: T1, CDK9 kinase (Homo sapiens, UniProt P50750); test: Inhibitory effect on the kinase activity of CDK9 in vitro; assay type: biochemical; conditions: CDK9 kinase (Millipore), CTD3 substrate polypeptide, Caliper
# T1 construct: purchased Millipore 14-685M
# T1 sequence (P50750 whole entry): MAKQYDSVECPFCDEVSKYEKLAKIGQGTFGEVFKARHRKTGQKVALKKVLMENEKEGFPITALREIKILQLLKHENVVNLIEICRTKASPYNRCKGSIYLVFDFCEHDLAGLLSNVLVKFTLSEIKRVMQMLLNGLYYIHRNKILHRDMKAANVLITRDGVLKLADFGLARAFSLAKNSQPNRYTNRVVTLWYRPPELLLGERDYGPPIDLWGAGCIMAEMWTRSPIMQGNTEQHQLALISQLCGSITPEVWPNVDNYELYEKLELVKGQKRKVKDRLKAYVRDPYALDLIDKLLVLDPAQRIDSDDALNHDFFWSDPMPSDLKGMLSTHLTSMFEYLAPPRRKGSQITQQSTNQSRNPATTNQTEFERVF
# T1 sequence (O60563 whole entry partner): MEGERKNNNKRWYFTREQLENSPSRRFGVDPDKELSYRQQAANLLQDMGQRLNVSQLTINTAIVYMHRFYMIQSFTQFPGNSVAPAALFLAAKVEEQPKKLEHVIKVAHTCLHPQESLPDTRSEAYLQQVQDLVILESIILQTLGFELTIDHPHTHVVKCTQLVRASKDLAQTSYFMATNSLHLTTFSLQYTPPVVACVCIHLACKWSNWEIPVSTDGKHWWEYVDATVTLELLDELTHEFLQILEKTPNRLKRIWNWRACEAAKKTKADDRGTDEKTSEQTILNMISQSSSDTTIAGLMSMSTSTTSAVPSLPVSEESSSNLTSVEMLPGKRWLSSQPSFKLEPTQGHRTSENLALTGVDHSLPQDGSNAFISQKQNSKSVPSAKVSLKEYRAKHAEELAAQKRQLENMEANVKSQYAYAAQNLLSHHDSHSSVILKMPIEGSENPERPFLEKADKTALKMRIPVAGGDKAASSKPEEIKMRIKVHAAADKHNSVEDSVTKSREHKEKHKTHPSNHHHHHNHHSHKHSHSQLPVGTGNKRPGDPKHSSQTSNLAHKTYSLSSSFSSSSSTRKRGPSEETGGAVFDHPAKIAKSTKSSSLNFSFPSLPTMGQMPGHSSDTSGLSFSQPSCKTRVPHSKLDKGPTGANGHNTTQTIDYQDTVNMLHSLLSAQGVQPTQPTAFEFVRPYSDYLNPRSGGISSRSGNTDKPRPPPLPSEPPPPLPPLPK
# Description: The detection of the inhibitory effect of the compounds of the present disclosure on the kinase activity of CDK9 in vitro was determined by the following method:
# Compound preparation: The compound was accurately weighed and dissolved in DMSO (Sigma, D2650) to a concentration of 100 um for later use. The compound was diluted to 5-fold of a desired highest concentration, and diluted 4-fold into 6 concentration gradients, allowing the final concentration of the compound in the reaction system to be 100, 25, 6.25, 1.56, 0.39, 0.098 nM. 5 ul was taken to a 384-well plate (Corning, 4512).
# Detection: Data was collected by Caliper.
# Calculation: The IC50 value was calculated by Graphpad prism 5.0 software according to the concentration of the compound and the corresponding signal value.
# [2] = test system: Mv4-11 cells; test: Inhibition of the proliferation of Mv4-11 cells (CCK8); assay type: cell-based; conditions: Mv4-11 cell proliferation, CCK8 OD450
# Description: The inhibition effect of the compounds of the present disclosure on the proliferation of Mv4-11 cells (ATCC:CRL-9591TM) in vitro was determined by the following method:
# Cell inoculation: Mv4-11 cells with good growing state in logarithmic growth phase were inoculated into a 96-well plate at 20000 cells per well and 50 uL, and cultured at 37° C. and under 5% CO2 condition for 2-4 h. Administration: The compound was diluted with 1640 medium containing 10% FBS and 1% PS: 0.4 uL of the compound with an initial concentration of 1 mM was placed in a dilution plate, each added with 199.6 uL of the above culture medium, and gradiently diluted 4-fold, so that the final concentration in the added cell was 1000, 250, 62.5, 15.625, 3.91, 0.98, 0.24, 0.06 nM. 50 μL of the medium containing the compound was sequentially added, and it was placed in a 37° C., 5% CO2 cell incubator for 48 hours.
# Detection: 10 uL CCK8 (Dojindo, CK 04) solution was added to each well, incubated in 37° C. 5% CO2 cell incubator for 2 hours, and then the OD450 value was read by Synegry H1 (BioTek) multimode microplate reader.
# Calculation: The IC50 value was calculated using Graphpad prism 5.0 software according to the concentration of the compound and the corresponding signal value.
SMILES,IC50 [1],IC50 ([2]; 48 hours),"IC50 ([2]; Homo sapiens, MV4-11, 48 h)"
"CC(=O)N[C@@H]1CCC[C@H](C(=O)Nc2cc(-c3cc(C#N)n4c3CC(C)(C)C4)c(Cl)cn2)C1 [Compound 1, (1S,3R)-3-acetamido-N-(5-chloro-4-(5-cyano-2,2-dimethyl-2,3-dihydro-1H-pyrrolizin-7-yl)pyridin-2-yl)cyclohexane-1-carboxamide]",2.1 nM,–,1.6 nM
"CC(=O)N[C@@H]1C[C@@H]2C[C@H](C(=O)Nc3cc(-c4cc(C#N)n5c4CC(C)(C)C5)c(Cl)cn3)C[C@@H]2C1 (single isomer, unassigned) [Compound 14-2-2]",10.4 nM,–,44.6 nM
"CC(=O)N1CC[C@]2(CC[C@H](C(=O)Nc3cc(-c4cnn5c4CC(C)(C)C5)c(Cl)cn3)C2)C1 (single isomer, unassigned) [Compound 19-2]",–,–,84.2 nM
"CC1(C)Cc2c(-c3cc(NC(=O)[C@H]4CCC[C@H](c5ccncc5)C4)ncc3Cl)cnn2C1 (single isomer, unassigned) [Compound 21-1]",–,–,68.5 nM
"CC(=O)N1C[C@H]2C[C@@H](C(=O)Nc3cc(-c4cc(C#N)n5c4CC(C)(C)C5)c(Cl)cn3)C[C@H]2C1 [Compound 7-2, (3aR,5r,6aS)-2-acetyl-N-(5-chloro-4-(5-cyano-2,2-dimethyl-2,3-dihydro-1H-pyrrolizin-7-yl)pyridin-2-yl)octahydrocyclopenta[c]pyrrole-5-carboxamide]",–,–,8.6 nM
"CC(=O)N[C@@H]1C[C@@H]2C[C@@H](C(=O)Nc3cc(-c4cc(C#N)n5c4CC(C)(C)C5)c(Cl)cn3)C[C@@H]2C1 (single isomer, unassigned) [Compound 14-1-2]",–,–,11.1 nM
"CC(=O)N1C[C@H]2CC(C(=O)Nc3cc(-c4cc(C(N)=O)n5c4CC(C)(C)C5)c(Cl)cn3)C[C@H]2C1 (single isomer, unassigned) [Compound 8-2]",3.1 nM,0.4 nM,–
"CC1(C)Cc2c(-c3cc(NC(=O)[C@@H]4C[C@H]5C[C@H](C(N)=O)C[C@H]5C4)ncc3Cl)cc(C(N)=O)n2C1 [Compound 15-1, (2s,3aR,5r,6aS)-N-(4-(5-carbamoyl-2,2-dimethyl-2,3-dihydro-1H-pyrrolizin-7-yl)-5-chloropyridin-2-yl)octahydropentalene-2,5-dicarboxamide]",10.1 nM,–,7.9 nM
"CC1(C)Cc2c(-c3cc(NC(=O)[C@@H]4CCC[C@H](c5cccnc5)C4)ncc3Cl)cnn2C1 (single isomer, unassigned) [Compound 20-2]",7 nM,–,15 nM
"CC(=O)N[C@@H]1CCC[C@H](C(=O)Nc2cc(-c3cc(C#N)n4c3CC(C)(C)C4)c(F)cn2)C1 [Compound 10, (1S,3R)-3-acetamido-N-(4-(5-cyano-2,2-dimethyl-2,3-dihydro-1H-pyrrolizin-7-yl)-5-fluoropyridin-2-yl)cyclohexane-1-carboxamide]",–,–,26.9 nM
"C[C@@H](N)C(=O)N1C[C@H]2CC(C(=O)Nc3cc(-c4cnn5c4CC(C)(C)C5)c(Cl)cn3)C[C@H]2C1 (stereo partly drawn) [Compound 6, (3aR,6aS)-2-(D-alanyl)-N-(5-chloro-4-(5,5-dimethyl-5,6-dihydro-4H-pyrrolo[1,2-b]pyrazol-3-yl)pyridin-2-yl)octahydrocyclopenta[c]pyrrole-5-carboxamide]",3.7 nM,–,5.4 nM
"CC1(C)Cc2c(-c3cc(NC(=O)[C@H]4C[C@H]5C[C@@H](C(N)=O)C[C@H]5C4)ncc3Cl)cc(C(N)=O)n2C1 [Compound 15-2, (2r,3aR,5s,6aS)-N-(4-(5-carbamoyl-2,2-dimethyl-2,3-dihydro-1H-pyrrolizin-7-yl)-5-chloropyridin-2-yl)octahydropentalene-2,5-dicarboxamide]",3.7 nM,–,14.3 nM
"CC(=O)N1C[C@H]2CC(C(=O)Nc3cc(-c4cc(C(N)=O)n5c4CC(C)(C)C5)c(Cl)cn3)C[C@H]2C1 (single isomer, unassigned) [Compound 8-1]",3.5 nM,7.7 nM,–
"CC(=O)N[C@@H]1CCC[C@H](C(=O)Nc2cc(-c3cc(C(N)=O)n4c3CC(C)(C)C4)c(Cl)cn2)C1 [Compound 2, 7-(2-((1S,3R)-3-acetylaminocyclohexane-1-carboxamido)-5-chloropyridin-4-yl)-2,2-dimethyl-2,3-dihydro-1H-pyrrolizine-5-carboxamide]",2.8 nM,–,27.6 nM
"CC(=O)N[C@@H]1CCC[C@H](C(=O)Nc2cc(-c3cc(C#N)n4c3CC(C)(C)C4)ccn2)C1 [Compound 11, (1S,3R)-3-acetamido-N-(4-(5-cyano-2,2-dimethyl-2,3-dihydro-1H-pyrrolizin-7-yl)pyridin-2-yl)cyclohexane-1-carboxamide]",–,–,2.2 nM
"CC(=O)N[C@H]1C[C@@H]2C[C@@H](C(=O)Nc3cc(-c4cc(C#N)n5c4CC(C)(C)C5)c(Cl)cn3)C[C@@H]2C1 (single isomer, unassigned) [Compound 14-1-1]",–,–,23.9 nM
"CC(=O)N[C@@H]1CCC[C@H](C(=O)Nc2cc(-c3cnn4c3CC(C)(C)C4)c(Cl)cn2)C1 [AZD4573, reference compound]",–,–,4.2 nM
"CC(=O)N1C[C@H]2C[C@H](C(=O)Nc3cc(-c4cnn5c4CC(C)(C)C5)c(Cl)cn3)C[C@H]2C1 [Compound 4-1, (3aR,5s,6aS)-2-acetyl-N-(5-chloro-4-(5,5-dimethyl-5,6-dihydro-4H-pyrrolo[1,2-b]pyrazol-3-yl)pyridin-2-yl)octahydrocyclopenta[c]pyrrole-5-carboxamide]",–,–,14.8 nM
"CC(=O)N[C@@H]1CCC[C@H](C(=O)Nc2cc(-c3cc(C#N)c4n3CC(C)(C)C4)c(Cl)cn2)C1 [Compound 16, (1S,3R)-3-acetamido-N-(5-chloro-4-(7-cyano-2,2-dimethyl-2,3-dihydro-1H-pyrrolizin-5-yl)pyridin-2-yl)cyclohexane-1-carboxamide]",2.9 nM,–,–

# Further lines, results first:
IC50 [1],IC50 ([2]; 48 hours),"IC50 ([2]; Homo sapiens, MV4-11, 48 h)",SMILES
4.8 nM,3.5 nM,–,"CC(=O)N1C[C@H]2CC(C(=O)Nc3cc(-c4cc(C(N)=O)n5c4CC(C)(C)C5)ccn3)C[C@H]2C1 (single isomer, unassigned) [Compound 32-1]"
4.9 nM,–,2.3 nM,"CC(=O)N[C@H]1C[C@@H]2C[C@@H](C(=O)Nc3cc(-c4cc(C(N)=O)n5c4CC(C)(C)C5)c(F)cn3)C[C@@H]2C1 [Compound 34-1, 7-(2-((2r,3aR,5s,6aS)-5-acetylaminooctahydropentalene-2-carboxamido)-5-fluoropyridin-4-yl)-2,2-dimethyl-2,3-dihydro-1H-pyrrolizine-5-carboxamide]"
2.2 nM,–,3.5 nM,"CC(=O)N[C@@H]1CCC[C@H](C(=O)Nc2cc(-c3cc(C#N)c4n3CC(C)(C)C4)c(F)cn2)C1 [Compound 27, (1S,3R)-3-acetamido-N-(4-(7-cyano-2,2-dimethyl-2,3-dihydro-1H-pyrrolizin-5-yl)-5-fluoropyridin-2-yl)cyclohexane-1-carboxamide]"
–,–,71.9 nM,"CC1(C)Cc2c(-c3cc(NC(=O)[C@@H]4CCC[C@@H](c5ccncc5)C4)ncc3Cl)cnn2C1 (single isomer, unassigned) [Compound 21-4]"
2.8 nM,0.9 nM,–,"CC(=O)N1C[C@H]2CC(C(=O)Nc3cc(-c4cc(C(N)=O)n5c4CC(C)(C)C5)ccn3)C[C@H]2C1 (single isomer, unassigned) [Compound 32-2]"
–,–,9 nM,"CC(=O)N[C@@H]1C[C@@H]2C[C@H](C(=O)Nc3cc(-c4cc(C(N)=O)n5c4CC(C)(C)C5)c(F)cn3)C[C@@H]2C1 [Compound 34-2, 7-(2-((2s,3aR,5r,6aS)-5-acetylaminooctahydropentalene-2-carboxamido)-5-fluoropyridin-4-yl)-2,2-dimethyl-2,3-dihydro-1H-pyrrolizine-5-carboxamide]"
–,–,36.5 nM,"CC(=O)N[C@@H]1CCC[C@H](C(=O)Nc2cc(-c3cc(C(N)=O)c4n3CC(C)(C)C4)ccn2)C1 [Compound 28, 5-(2-((1S,3R)-3-acetylaminocyclohexane-1-carboxamido)pyridin-4-yl)-2,2-dimethyl-2,3-dihydro-1H-pyrrolizine-7-carboxamide]"
–,–,1.3 nM,"CC(=O)N[C@@H]1CCC[C@H](C(=O)Nc2cc(-c3cc(C(N)=O)n4c3CC(C)(C)C4)c(F)cn2)C1 [Compound 33, 7-(2-((1S,3R)-3-acetylaminocyclohexane-1-carboxamido)-5-fluoropyridin-4-yl)-2,2-dimethyl-2,3-dihydro-1H-pyrrolizine-5-carboxamide]"
–,–,16.2 nM,"CC1(C)Cc2c(-c3cc(NC(=O)[C@@H]4CCC[C@H](c5ccncc5)C4)ncc3Cl)cnn2C1 (single isomer, unassigned) [Compound 21-2]"
